Among the data in patent US20250034159A1, “INHIBITORS OF EPIDERMAL GROWTH FACTOR RECEPTOR” (ORIC Pharmaceuticals, Inc., priority 2021, published 2025) are IC50 values, retold here.

Where two headings read alike, the source gives them in different places.

The subject of one assay is BaF3_EGFR LR/CS cells. Kind of assay: Biological Activity Assay D: BaF3 cell proliferation assay, EGFR L858R/C797S mutant (BaF3 LR/CS). The format is cell-based. The settings on record: Ba/F3 EGFR, read-out: BaF3 LR/CS IC50.
A further assay deals with Ba/F3_EGFR WT cells. The assay can be described thus: Biological Activity Assay D: BaF3 cell proliferation assay, EGFR wild-type (BaF3 WT). The class given is cell-based. The conditions noted are these: Ba/F3 EGFR, read-out: BaF3 WT IC50.
In the next assay the test system is BaF3_EGFR d19/CS cells. The assay can be described thus: Biological Activity Assay D: BaF3 cell proliferation assay, EGFR exon 19 deletion/C797S (BaF3 d19/CS). The class given is cell-based. The conditions noted are these: Ba/F3 EGFR, read-out: BaF3 d19/CS IC50.
The target in assay [1] is recombinant human EGFR exon 19 deletion/C797S double mutant protein (Homo sapiens (Human), UniProt P00533, C797S/DEL746-750). Kind of assay: Biological Activity Assay C: biochemical assay against EGFR exon 19 deletion/C797S protein (EGFR d19/CS). The procedure, abridged:
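IC50 values were fitted with a 4-parameter model to reaction slopes taken from 90 kinetic reads spaced 120 s apart. The Phosphosens sensor/ATP working solution was 40 uM/4 mM, and compound was dosed as 16-point dilutions at 2.5% final DMSO.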

[2] abbreviates: BaF3_EGFR LR/CS cells, ~72 hours, CellTiter-Glo.
Where [3] appears, read: Ba/F3_EGFR WT cells, ~72 hours, CellTiter-Glo.
Setting [4] is: BaF3_EGFR d19/CS cells, ~72 hours, CellTiter-Glo.

recombinant human EGFR exon 19 deletion/C797S double mutant protein, sequence (P00533 other isoform, or with tags, fused parts or gaps C797S/del 1-668/del 746-750 limits assumed): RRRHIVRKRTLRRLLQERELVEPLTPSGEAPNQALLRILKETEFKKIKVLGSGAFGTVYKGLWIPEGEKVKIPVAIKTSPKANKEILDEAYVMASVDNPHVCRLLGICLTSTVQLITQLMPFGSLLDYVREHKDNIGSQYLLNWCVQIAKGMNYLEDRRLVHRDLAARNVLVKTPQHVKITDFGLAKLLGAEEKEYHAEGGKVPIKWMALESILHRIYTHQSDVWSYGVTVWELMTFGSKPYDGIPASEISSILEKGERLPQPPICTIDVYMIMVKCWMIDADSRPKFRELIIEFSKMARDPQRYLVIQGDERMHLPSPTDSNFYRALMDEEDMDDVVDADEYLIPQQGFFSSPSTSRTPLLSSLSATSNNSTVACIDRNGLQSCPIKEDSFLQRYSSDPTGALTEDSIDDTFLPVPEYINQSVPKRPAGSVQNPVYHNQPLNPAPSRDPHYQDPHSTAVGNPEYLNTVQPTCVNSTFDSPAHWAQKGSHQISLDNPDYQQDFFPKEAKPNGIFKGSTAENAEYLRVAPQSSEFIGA

For `CC(=O)N1CC=C(c2cc3c(-c4cn(CC(C)(C)O)nc4-c4ccc(F)cc4)ncnc3o2)CC1` [Example 138, 1-[4-{4-[3-(4-Fluorophenyl)-1-(2-hydroxy-2-methylpropyl)-1H-pyrazol-4-yl]furo[2,3-d]pyrimidin-6-yl}-3,6-dihydropyridin-1 (2H)-yl]ethan-1-one], the IC50 in the assay on BaF3_EGFR LR/CS cells (setting [2]) came to 0.0944 µM; in the assay with Ba/F3_EGFR WT cells (setting [3]), 1.39 µM; in the assay with BaF3_EGFR d19/CS cells (setting [4]) it was 0.0637 µM; in assay [1], 0.0005 µM.

Take `CC(C)(C)OC(=O)N1C=C(c2cc3c(-c4cn(C5CS(=O)(=O)C5)nc4-c4ccc(F)cc4)ncnc3o2)CCC1` [Example 139, tert-butyl 5-{4-[1-(1,1-dioxo-1λ6-thietan-3-yl)-3-(4-fluorophenyl)-1H-pyrazol-4-yl]furo[2,3-d]pyrimidin-6-yl}-3,4-dihydropyridine-1(2H)-carboxylate]: the IC50 with BaF3_EGFR LR/CS cells (setting [2]) worked out at 0.574 µM; with Ba/F3_EGFR WT cells (setting [3]) it was 10.3 µM; with BaF3_EGFR d19/CS cells (setting [4]), 0.551 µM; in assay [1], 0.00855 µM.

As for `CC(=O)N1CC(C#Cc2cc3c(-c4cn(C5CS(=O)(=O)C5)nc4-c4ccc(F)cc4)ncnc3o2)C1` [Example 140, 3-[4-{6-[(1-Acetylazetidin-3-yl)ethynyl]furo[2,3-d]pyrimidin-4-yl}-3-(4-fluorophenyl)-1H-pyrazol-1-yl]-16-thietane-1,1-dione], the IC50 stood at 1.63 µM with BaF3_EGFR LR/CS cells (setting [2]), 5.68 µM in the assay on Ba/F3_EGFR WT cells (setting [3]), 0.916 µM in the assay on BaF3_EGFR d19/CS cells (setting [4]) and 0.00332 µM in assay [1].

On to `CC(=O)NCCCn1cc(-c2ncnc3oc(-c4ccccc4)cc23)c(-c2ccc(F)cc2)n1` [Example 141, N-{3-[3-(4-Fluorophenyl)-4-(6-phenylfuro[2,3-d]pyrimidin-4-yl)-1H-pyrazol-1-yl]propyl}acetamide], for which the IC50 in the assay with BaF3_EGFR LR/CS cells (72 h) was found to be 0.0436 µM; with Ba/F3_EGFR WT cells (72 h), 0.921 µM; with BaF3_EGFR d19/CS cells (72 h), 0.0661 µM; in assay [1] it was 0.00025 µM.

On to `Fc1ccc(-c2nn(C3CCC(F)(F)CC3)cc2-c2ncnc3oc(-c4ccccc4)cc23)cc1` [Example 142, 4-[1-(4,4-difluorocyclohexyl)-3-(4-fluorophenyl)-1H-pyrazol-4-yl]-6-phenylfuro[2,3-d]pyrimidine], for which the IC50 is 0.313 µM with BaF3_EGFR LR/CS cells (setting [2]), 6.07 µM with Ba/F3_EGFR WT cells (setting [3]), 0.398 µM with BaF3_EGFR d19/CS cells (setting [4]) and 0.00519 µM in assay [1].

With `CNC(=O)Cn1cc(-c2ncnc3oc(-c4ccccc4)cc23)c(-c2ccc(F)cc2)n1` [Example 143, 2-[3-(4-Fluorophenyl)-4-(6-phenylfuro[2,3-d]pyrimidin-4-yl)-1H-pyrazol-1-yl]-N-methylacetamide], the IC50 in the assay with BaF3_EGFR LR/CS cells (setting [2]) is 0.0598 µM; in the assay on Ba/F3_EGFR WT cells (setting [3]), 0.663 µM; in the assay on BaF3_EGFR d19/CS cells (setting [4]), 0.0943 µM; in assay [1], 0.00038 µM.

For `CC(C)(O)CCn1cc(-c2ncnc3[nH]c(-c4ccccc4)nc23)c(-c2ccc(F)cc2)n1` [Example 145, 4-[3-(4-fluorophenyl)-4-(8-phenyl-9H-purin-6-yl)-1H-pyrazol-1-yl]-2-methylbutan-2-ol], the IC50 with BaF3_EGFR LR/CS cells (setting [2]) amounted to 0.0836 µM; in the assay with Ba/F3_EGFR WT cells (setting [3]), 3.21 µM; in the assay on BaF3_EGFR d19/CS cells (setting [4]) it was 0.114 µM; in assay [1], 0.00055 µM.

Turning to `CC(C)(C)OC(=O)N1CCC=C(c2cc3c(-c4cn(C5CS(=O)(=O)C5)nc4-c4ccc(F)cc4)ncnc3o2)C1` [Example 146, tert-butyl 5-{4-[1-(1,1-dioxo-1λ6-thietan-3-yl)-3-(4-fluorophenyl)-1H-pyrazol-4-yl]furo[2,3-d]pyrimidin-6-yl}-3,6-dihydropyridine-1(2H)-carboxylate], the IC50 in the assay on BaF3_EGFR LR/CS cells (setting [2]) is 0.928 µM; in the assay on Ba/F3_EGFR WT cells (setting [3]) it was 7.88 µM; in the assay on BaF3_EGFR d19/CS cells (setting [4]) it was 0.525 µM; in assay [1], 0.00418 µM.

For the compound `NC(=O)CCCn1cc(-c2ncnc3oc(-c4ccccc4)cc23)c(-c2ccc(F)cc2)n1` [Example 147, 4-[3-(4-Fluorophenyl)-4-(6-phenylfuro[2,3-d]pyrimidin-4-yl)-1H-pyrazol-1-yl]butanamide], the IC50 with BaF3_EGFR LR/CS cells (setting [2]) amounted to 0.0733 µM; in the assay on Ba/F3_EGFR WT cells (setting [3]), 1.38 µM; with BaF3_EGFR d19/CS cells (setting [4]) it was 0.0686 µM; in assay [1], 0.00026 µM.

For `CN1CCC(n2cc(-c3ncnc4oc(-c5ccccc5)cc34)c(-c3ccc(F)cc3)n2)C1=O` (stereo not shown) [Example 148, 3-[3-(4-Fluorophenyl)-4-(6-phenylfuro[2,3-d]pyrimidin-4-yl)-1H-pyrazol-1-yl]-1-methylpyrrolidin-2-one], the IC50 in the assay on BaF3_EGFR LR/CS cells (setting [2]) came out at 0.0698 µM; in the assay with Ba/F3_EGFR WT cells (setting [3]), 1.51 µM; in the assay on BaF3_EGFR d19/CS cells (setting [4]), 0.0924 µM; in assay [1], 0.00061 µM.

In the case of `CC(=O)N1CCN(c2cc3c(-c4cn(C5CS(=O)(=O)C5)nc4-c4ccc(F)cc4)ncnc3o2)CC1` [Example 149, 3-{4-[6-(4-acetylpiperazin-1-yl)furo[2,3-d]pyrimidin-4-yl]-3-(4-fluorophenyl)-1H-pyrazol-1-yl}-1λ6-thietane-1,1-dione], the IC50 with BaF3_EGFR LR/CS cells (setting [2]) is 2.77 µM; with Ba/F3_EGFR WT cells (setting [3]) it was over 20 µM; with BaF3_EGFR d19/CS cells (setting [4]), 1.16 µM; in assay [1], 0.00372 µM.

For the compound `Fc1ccc(-c2nn([C@H]3C[C@@H](F)C3)cc2-c2ncnc3oc(-c4ccccc4)cc23)cc1` [Example 150, 4-{1-[(1s,3s)-3-fluorocyclobutyl]-3-(4-fluorophenyl)-1H-pyrazol-4-yl}-6-phenylfuro[2,3-d]pyrimidine], the IC50 was determined as 0.0422 µM in the assay on BaF3_EGFR LR/CS cells (setting [2]), 3.32 µM with Ba/F3_EGFR WT cells (setting [3]), 0.0699 µM in the assay on BaF3_EGFR d19/CS cells (setting [4]) and 0.00142 µM in assay [1].

As for `O=S1(=O)CC(n2cc(-c3ncnc4oc(C5=CNCCC5)cc34)c(-c3ccc(F)cc3)n2)C1` [Example 154, 3-{3-(4-fluorophenyl)-4-[6-(1,4,5,6-tetrahydropyridin-3-yl)furo[2,3-d]pyrimidin-4-yl]-1H-pyrazol-1-yl}-1λ6-thietane-1,1-dione], the IC50 with BaF3_EGFR LR/CS cells (setting [2]) was 0.63 µM; with Ba/F3_EGFR WT cells (setting [3]), 16.3 µM; in the assay with BaF3_EGFR d19/CS cells (setting [4]), 0.44 µM; in assay [1], 0.00075 µM.

On to `CC(=O)N1C=C(c2cc3c(-c4cn(C5CS(=O)(=O)C5)nc4-c4ccc(F)cc4)ncnc3o2)CCC1` [Example 155, 3-{4-[6-(1-acetyl-1,4,5,6-tetrahydropyridin-3-yl)furo[2,3-d]pyrimidin-4-yl]-3-(4-fluorophenyl)-1H-pyrazol-1-yl}-1λ6-thietane-1,1-dione], for which the IC50 came out at 0.065 µM with BaF3_EGFR LR/CS cells (setting [2]), 1.16 µM with Ba/F3_EGFR WT cells (setting [3]), 0.0638 µM in the assay on BaF3_EGFR d19/CS cells (setting [4]) and 0.00041 µM in assay [1].

For `FCCCn1cc(-c2ncnc3oc(-c4ccccc4)cc23)c(-c2ccc(F)cc2)n1` [Example 156, 4-[3-(4-fluorophenyl)-1-(3-fluoropropyl)-1H-pyrazol-4-yl]-6-phenylfuro[2,3-d]pyrimidine], the IC50 was found to be 0.0188 µM in the assay on BaF3_EGFR LR/CS cells (setting [2]), 1.48 µM with Ba/F3_EGFR WT cells (setting [3]), 0.0305 µM with BaF3_EGFR d19/CS cells (setting [4]) and 0.00031 µM in assay [1].

`CC(C)(Cn1cc(-c2ncnc3oc(-c4ccccc4)cc23)c(-c2ccc(F)cc2)n1)C(N)=O` [Example 158, 3-[3-(4-fluorophenyl)-4-(6-phenylfuro[2,3-d]pyrimidin-4-yl)-1H-pyrazol-1-yl]-2,2-dimethylpropanamide]: the IC50 in the assay on BaF3_EGFR LR/CS cells (setting [2]) is 0.0151 µM; with Ba/F3_EGFR WT cells (setting [3]), 0.782 µM; in the assay with BaF3_EGFR d19/CS cells (setting [4]), 0.033 µM; in assay [1] it was 0.00026 µM.
